Several values for one entry are separate records, joined by “and”; a condition that tells them apart may be missing. Equal values may be shown once.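 96-well plates; 48 h exposure; 5 concentrations. Endpoints by linear interpolation between flanking doses. Not reached: highest tested concentration assigned. The concentration for full growth arrest is given as TGI.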
tested on: UACC-257 melanoma; experiment: NCI-60 cell line screen, 48 h

SMILES | TGI
C=CCOc1ccc(C2(O)c3ccccc3C3=NCCCN32)cc1 (stereo unspecified) | 52.7 µM
CCOC(=O)NC(Nc1ccc([N+](=O)[O-])cc1)(C(F)(F)F)C(F)(F)F | > 100 µM
CCC/C(Cl)=N\OC(=O)Nc1ccc(OC(F)(F)F)cc1 | 39.8 µM
C[N+]12CCCCC1C(CN1C(=O)Cc3c4ccccc4c(c4ccccc34)CC1=O)CCC2 (stereo unspecified) | > 100 µM
CC(=O)O[C@H]1CC[C@@]2(C)C(=CC[C@H]3[C@@H]4C[C@H](N5CCOCC5)[C@H](OC(C)=O)[C@@]4(C)CC[C@@H]32)C1 | > 100 µM
CCN1CCC(O)(/C=C/c2ccc(C)cc2C)C(C(=O)/C=C/c2ccc(C)cc2C)C1 (stereo unspecified) | 11.5 µM
CC1=NNC(=O)C1C(CC(=O)c1c[nH]c2ccccc12)C(=O)O (stereo unspecified) | > 100 µM
C=C([C@@]1(O)C[C@H]2[C@H](CCC2(OC)OC)[C@@H]2c3ccccc3O[C@@H]21)[Si](C)(C)C | > 100 µM
COc1ccc2c(c1)CCN1CCc3ccccc3CC21 (stereo unspecified) | > 100 µM
CN(C)CCOC1(Cc2ccc(F)cc2)CCC(C(C)(C)C)CC1 (stereo unspecified) | 13.4 µM and 12.1 µM
Nc1ccc(C(=O)N2CCC[C@H]2CO)c(N)c1 | > 100 µM
On1c(-c2ccccc2)nc2ccccc2c1=S | > 100 µM
Nc1ccc(S2(c3ccc(N)cc3)C=C(c3ccccc3)C(c3ccccc3)=C2)cc1 | > 100 µM
COC(=O)C1=C(C)NC(C)=C(C(=O)OC)C1c1nc2sccn2c1[N+](=O)[O-] | > 100 µM
Nc1nc(Cl)cc(NCC2(CO)CCCC2)n1 | > 100 µM

tested on: A498 renal; experiment: NCI-60 cell line screen, 48 h

SMILES | TGI
COc1ccc(C2OC(c3ccncc3)=NN2C)cc1OC (stereo unspecified) | 98.4 µM
CC12CCC(O)CC1CCC1C2CCC2(C)C(C(=O)CC(O)C(F)(F)F)CCC12 (stereo unspecified) | 40.7 µM
CC(C)(C)OC(=O)NCCCNC1(c2cc3ccccc3s2)CCCCC1 | 29.8 µM
COC1C=COC2(C)Oc3c(C)c(O)c4c(O)c(c(C5SCCS5)c(O)c4c3C2=O)NC(=O)C(C)=C/C=C\C(C)C2OC(C)(C)OC(C2C)C(C)C(OC(C)=O)C1C (stereo unspecified) | 29.3 µM
C=CCOc1ccc(C2(O)c3ccccc3C3=NCCCN32)cc1 (stereo unspecified) | > 100 µM
CCOC(=O)NC(Nc1ccc([N+](=O)[O-])cc1)(C(F)(F)F)C(F)(F)F | > 100 µM
CCC/C(Cl)=N\OC(=O)Nc1ccc(OC(F)(F)F)cc1 | 54.8 µM
C[N+]12CCCCC1C(CN1C(=O)Cc3c4ccccc4c(c4ccccc34)CC1=O)CCC2 (stereo unspecified) | > 100 µM
CC(=O)O[C@H]1CC[C@@]2(C)C(=CC[C@H]3[C@@H]4C[C@H](N5CCOCC5)[C@H](OC(C)=O)[C@@]4(C)CC[C@@H]32)C1 | > 100 µM
CCN1CCC(O)(/C=C/c2ccc(C)cc2C)C(C(=O)/C=C/c2ccc(C)cc2C)C1 (stereo unspecified) | 22.7 µM
CC1=NNC(=O)C1C(CC(=O)c1c[nH]c2ccccc12)C(=O)O (stereo unspecified) | > 100 µM
C=C([C@@]1(O)C[C@H]2[C@H](CCC2(OC)OC)[C@@H]2c3ccccc3O[C@@H]21)[Si](C)(C)C | > 100 µM
COc1ccc2c(c1)CCN1CCc3ccccc3CC21 (stereo unspecified) | > 100 µM
CN(C)CCOC1(Cc2ccc(F)cc2)CCC(C(C)(C)C)CC1 (stereo unspecified) | 26 µM and 29.3 µM
Nc1ccc(C(=O)N2CCC[C@H]2CO)c(N)c1 | > 100 µM
On1c(-c2ccccc2)nc2ccccc2c1=S | > 100 µM
Nc1ccc(S2(c3ccc(N)cc3)C=C(c3ccccc3)C(c3ccccc3)=C2)cc1 | > 90.3 µM
COC(=O)C1=C(C)NC(C)=C(C(=O)OC)C1c1nc2sccn2c1[N+](=O)[O-] | > 100 µM
Nc1nc(Cl)cc(NCC2(CO)CCCC2)n1 | > 100 µM

tested on: DU-145 prostate; experiment: NCI-60 cell line screen, 48 h

SMILES | TGI
COc1ccc(C2OC(c3ccncc3)=NN2C)cc1OC (stereo unspecified) | > 100 µM
CC12CCC(O)CC1CCC1C2CCC2(C)C(C(=O)CC(O)C(F)(F)F)CCC12 (stereo unspecified) | > 100 µM
CC(C)(C)OC(=O)NCCCNC1(c2cc3ccccc3s2)CCCCC1 | 32.2 µM
COC1C=COC2(C)Oc3c(C)c(O)c4c(O)c(c(C5SCCS5)c(O)c4c3C2=O)NC(=O)C(C)=C/C=C\C(C)C2OC(C)(C)OC(C2C)C(C)C(OC(C)=O)C1C (stereo unspecified) | 59.8 µM
C=CCOc1ccc(C2(O)c3ccccc3C3=NCCCN32)cc1 (stereo unspecified) | > 100 µM
CCOC(=O)NC(Nc1ccc([N+](=O)[O-])cc1)(C(F)(F)F)C(F)(F)F | > 100 µM
CCC/C(Cl)=N\OC(=O)Nc1ccc(OC(F)(F)F)cc1 | 33.4 µM
C[N+]12CCCCC1C(CN1C(=O)Cc3c4ccccc4c(c4ccccc34)CC1=O)CCC2 (stereo unspecified) | > 100 µM
CC(=O)O[C@H]1CC[C@@]2(C)C(=CC[C@H]3[C@@H]4C[C@H](N5CCOCC5)[C@H](OC(C)=O)[C@@]4(C)CC[C@@H]32)C1 | > 100 µM
CCN1CCC(O)(/C=C/c2ccc(C)cc2C)C(C(=O)/C=C/c2ccc(C)cc2C)C1 (stereo unspecified) | 10.5 µM
CC1=NNC(=O)C1C(CC(=O)c1c[nH]c2ccccc12)C(=O)O (stereo unspecified) | > 100 µM
C=C([C@@]1(O)C[C@H]2[C@H](CCC2(OC)OC)[C@@H]2c3ccccc3O[C@@H]21)[Si](C)(C)C | > 100 µM
COc1ccc2c(c1)CCN1CCc3ccccc3CC21 (stereo unspecified) | > 100 µM
CN(C)CCOC1(Cc2ccc(F)cc2)CCC(C(C)(C)C)CC1 (stereo unspecified) | 21.4 µM and 22.3 µM
Nc1ccc(C(=O)N2CCC[C@H]2CO)c(N)c1 | > 100 µM
On1c(-c2ccccc2)nc2ccccc2c1=S | > 100 µM
Nc1ccc(S2(c3ccc(N)cc3)C=C(c3ccccc3)C(c3ccccc3)=C2)cc1 | > 90.3 µM
COC(=O)C1=C(C)NC(C)=C(C(=O)OC)C1c1nc2sccn2c1[N+](=O)[O-] | > 100 µM
Nc1nc(Cl)cc(NCC2(CO)CCCC2)n1 | > 100 µM

tested on: HL-60(TB) leukemia; experiment: NCI-60 cell line screen, 48 h

SMILES | TGI [µM]
COc1ccc(C2OC(c3ccncc3)=NN2C)cc1OC (stereo unspecified) | > 100
CC12CCC(O)CC1CCC1C2CCC2(C)C(C(=O)CC(O)C(F)(F)F)CCC12 (stereo unspecified) | 47.5
CC(C)(C)OC(=O)NCCCNC1(c2cc3ccccc3s2)CCCCC1 | 28
COC1C=COC2(C)Oc3c(C)c(O)c4c(O)c(c(C5SCCS5)c(O)c4c3C2=O)NC(=O)C(C)=C/C=C\C(C)C2OC(C)(C)OC(C2C)C(C)C(OC(C)=O)C1C (stereo unspecified) | 17.4
C=CCOc1ccc(C2(O)c3ccccc3C3=NCCCN32)cc1 (stereo unspecified) | > 100
CCOC(=O)NC(Nc1ccc([N+](=O)[O-])cc1)(C(F)(F)F)C(F)(F)F | > 100
CCC/C(Cl)=N\OC(=O)Nc1ccc(OC(F)(F)F)cc1 | > 20.6
C[N+]12CCCCC1C(CN1C(=O)Cc3c4ccccc4c(c4ccccc34)CC1=O)CCC2 (stereo unspecified) | > 100
CC(=O)O[C@H]1CC[C@@]2(C)C(=CC[C@H]3[C@@H]4C[C@H](N5CCOCC5)[C@H](OC(C)=O)[C@@]4(C)CC[C@@H]32)C1 | > 100
CCN1CCC(O)(/C=C/c2ccc(C)cc2C)C(C(=O)/C=C/c2ccc(C)cc2C)C1 (stereo unspecified) | > 100
CC1=NNC(=O)C1C(CC(=O)c1c[nH]c2ccccc12)C(=O)O (stereo unspecified) | > 100
C=C([C@@]1(O)C[C@H]2[C@H](CCC2(OC)OC)[C@@H]2c3ccccc3O[C@@H]21)[Si](C)(C)C | 98.6
COc1ccc2c(c1)CCN1CCc3ccccc3CC21 (stereo unspecified) | 68
CN(C)CCOC1(Cc2ccc(F)cc2)CCC(C(C)(C)C)CC1 (stereo unspecified) | 13.1
Nc1ccc(C(=O)N2CCC[C@H]2CO)c(N)c1 | > 100
On1c(-c2ccccc2)nc2ccccc2c1=S | > 100
Nc1ccc(S2(c3ccc(N)cc3)C=C(c3ccccc3)C(c3ccccc3)=C2)cc1 | > 100
COC(=O)C1=C(C)NC(C)=C(C(=O)OC)C1c1nc2sccn2c1[N+](=O)[O-] | > 100
Nc1nc(Cl)cc(NCC2(CO)CCCC2)n1 | > 100

tested on: SK-MEL-5 melanoma; experiment: NCI-60 cell line screen, 48 h

SMILES | TGI
COc1ccc(C2OC(c3ccncc3)=NN2C)cc1OC (stereo unspecified) | > 100 µM
CC12CCC(O)CC1CCC1C2CCC2(C)C(C(=O)CC(O)C(F)(F)F)CCC12 (stereo unspecified) | > 100 µM
CC(C)(C)OC(=O)NCCCNC1(c2cc3ccccc3s2)CCCCC1 | 27.3 µM
COC1C=COC2(C)Oc3c(C)c(O)c4c(O)c(c(C5SCCS5)c(O)c4c3C2=O)NC(=O)C(C)=C/C=C\C(C)C2OC(C)(C)OC(C2C)C(C)C(OC(C)=O)C1C (stereo unspecified) | 15.5 µM
C=CCOc1ccc(C2(O)c3ccccc3C3=NCCCN32)cc1 (stereo unspecified) | 45.7 µM
CCOC(=O)NC(Nc1ccc([N+](=O)[O-])cc1)(C(F)(F)F)C(F)(F)F | > 100 µM
CCC/C(Cl)=N\OC(=O)Nc1ccc(OC(F)(F)F)cc1 | 21.7 µM
C[N+]12CCCCC1C(CN1C(=O)Cc3c4ccccc4c(c4ccccc34)CC1=O)CCC2 (stereo unspecified) | > 100 µM
CC(=O)O[C@H]1CC[C@@]2(C)C(=CC[C@H]3[C@@H]4C[C@H](N5CCOCC5)[C@H](OC(C)=O)[C@@]4(C)CC[C@@H]32)C1 | > 100 µM
CCN1CCC(O)(/C=C/c2ccc(C)cc2C)C(C(=O)/C=C/c2ccc(C)cc2C)C1 (stereo unspecified) | 9.23 µM
CC1=NNC(=O)C1C(CC(=O)c1c[nH]c2ccccc12)C(=O)O (stereo unspecified) | > 100 µM
C=C([C@@]1(O)C[C@H]2[C@H](CCC2(OC)OC)[C@@H]2c3ccccc3O[C@@H]21)[Si](C)(C)C | > 100 µM
COc1ccc2c(c1)CCN1CCc3ccccc3CC21 (stereo unspecified) | 30.2 µM
CN(C)CCOC1(Cc2ccc(F)cc2)CCC(C(C)(C)C)CC1 (stereo unspecified) | 3.42 µM and 5.03 µM
Nc1ccc(C(=O)N2CCC[C@H]2CO)c(N)c1 | > 100 µM
On1c(-c2ccccc2)nc2ccccc2c1=S | > 100 µM
Nc1ccc(S2(c3ccc(N)cc3)C=C(c3ccccc3)C(c3ccccc3)=C2)cc1 | > 100 µM
COC(=O)C1=C(C)NC(C)=C(C(=O)OC)C1c1nc2sccn2c1[N+](=O)[O-] | > 100 µM
Nc1nc(Cl)cc(NCC2(CO)CCCC2)n1 | > 100 µM

From PubChem BioAssay (NCI)
